Measurements as given in patent US20050202089A1 (SANOFI-SYNTHELABO, priority 1996, published 2005).

Experiment: solubility of mizolastine in water

What does the source list for “2-[[1-[1-[(4-fluorophenyl)methyl]-1H-benzimidazol-2-yl]piperid-4-yl]methylamino]-pyrimidin-4-ol [mizolastine]”?
solubility in water (neutral pH): 13 µg/mL; solubility (pH 3): 11000 µg/mL
